Results from patent publication US20250019369A1, “N-(4-aminocyclohexyl)pyrimidine-4-carboxamide derivatives as CD38 inhibitors” (Cerevance, Inc., priority 2021, published 2025).

Legend:
Recombinant mouse CD38 = Recombinant mouse CD38 (Mus musculus (Mouse), UniProt P56528); assay: Mouse CD38 hydrolase assay (fluorescence, ε-NAD substrate); format: biochemical; settings: recombinant mouse CD38 0.4 nM, 12 μM ε-NAD, 30 min preincubation at 25° C., pH 7.4
Method: (§1) The ability of test compounds to inhibit mouse CD38 hydrolase activity was measured in a fluorescence-based assay using non-physiological NAD^+ substrate analogue 1,N^6-etheno NAD^+ (ε-NAD). Recombinant mouse CD38 (0.4 nM) was preincubated with test compounds in 384-well black microplates for 30 min at 25° C. in PBS (—Ca^2+/Mg^2+) containing 0.005% BSA (pH 7.4). CD38 hydrolase activity was initiated by addition of 12 μM ε-NAD, which yields the fluorescent product 1,N^6-etheno ADP-ribose. Formation of fluorescent product was followed using ClarioStar Plus (BMG) microplate reader by reading fluorescence (excitation λ=300 nm; emission λ=410 nm) at two time points, one immediately after substrate addition (t=0) and one at 6 min (t=6).
(§2) Data was analysed by subtracting the values detected at t=0 from t=6 to correct for variation in baseline fluorescence, and fluorescence values were converted to percent inhibition using the average of high signal (CD38 and ε-NAD) and low signal (CD38 and ε-NAD in the presence of a tool CD38 inhibitor) control wells. IC50 values were determined from a 10-point, half log concentration response curve with a four-parameter logistic equation.

[1] = Tissue binding assay, brain homogenate (equilibrium dialysis); format: in vitro ADME; settings: dialysis 4 hours at 37° C., dilution factor 4
Method: Buffer preparation. A basic solution was prepared by dissolving 14.2 g/L Na2HPO4 and 8.77 g/L NaCl in deionized H2O. An acidic solution was prepared by dissolving 15.6 g/L NaH2PO4·2H2O and 8.77 g/L NaCl in deionized H2O. Using the acidic solution, the basic solution was then titrated to pH 7.4±0.1 and stored at 4° C. for up to 1 month. The stop solution was 100% CH3CN containing 200 ng/mL tolbutamide, 200 ng/mL labetalol and 50 ng/mL metformin.
Test method. Dialysis membrane strips were soaked in ultra-pure water at room temperature for ˜1 hour. Each membrane strip containing 2 membranes was separated and soaked in 20:80 EtOH/H2O (v/v) for ˜20 min, after which they were ready for use or were stored in the solution at 2-8° C. for up to 1 month. Prior to the experiment, the membrane was rinsed and soaked for 20 min in ultra-pure water. On the day of experiment, brain homogenate was thawed in a water bath at room temperature and incubated at 37° C. for 10 min before use. Test and control compounds were dissolved in DMSO to achieve 10 mM stock solutions. DMSO working solutions were prepared at 400 μM by diluting 10 μL of stock solution. To prepare the time zero (t=0) samples to be used for recovery determination, 50 μL aliquots of loading matrix were transferred in triplicate to the sample collection plate. The samples were immediately matched with opposite blank buffer to obtain a final volume of 100 μL of 1:1 matrix/dialysis buffer (v/v) in each well. 500 μL of stop solution were added to these t=0 samples. They were then stored at 2-8° C. pending further processes along with other post-dialysis samples. To load the dialysis device, an aliquot of 150 μL of the loading matrix was transferred to the donor side of each dialysis well in triplicate, and 150 μL of the dialysis buffer was loaded to the receiver side of the well. The dialysis plate was placed in a humidified incubator at 37° C. with 5% CO2 on a shaking platform that rotated slowly (about 100 rpm) for 4 hours. At the end of the dialysis, aliquots of 50 μL of samples were taken from both the buffer side and the matrix side of the dialysis device. These samples were transferred into new 96-well plates. Each sample was mixed with an equal volume of opposite blank matrix (buffer or matrix) to reach a final volume of 100 μL of 1:1 matrix/dialysis buffer (v/v) in each well. All samples were further processed by adding 500 μL of stop solution containing internal standards. The mixture was vortexed and centrifuged at 4000 rpm for about 20 min. An aliquot of 100 μL of supernatant of all the samples was then removed for LC-MS/MS analysis. The single blank samples were prepared by transferring 50 μL of blank matrix to a 96-well plate and adding 50 μL of blank PBS buffer to each well. Then the matrix-matched samples were further processed by adding 500 μL of stop solution containing internal standards, following the same sample processing method as the dialysis samples.
Data analysis. The % undiluted unbound, % undiluted bound and % recovery were calculated using the following equations:
% Undiluted Unbound=100*1/D/((1/(F/T)−1)+1/D)
% Undiluted Bound=100−% Undiluted Unbound
where F is the analyte concentration or peak area ratio of analyte/internal standard on the buffer (receiver) side of the membrane; T is the analyte concentration or peak area ratio of analyte/internal standard on the matrix (donor) side of the membrane; To is the analyte concentration or the peak area ratio of analyte/internal standard in the loading matrix sample at time zero; and D is the dilution factor determined as 4 in this assay.

Recombinant human CD38 = Recombinant human CD38 (Homo sapiens (Human), UniProt P28907); assay: Human CD38 hydrolase assay (fluorescence, ε-NAD substrate); format: biochemical; settings: recombinant human CD38 0.8 nM, 4 μM ε-NAD, 30 min preincubation at 25° C., pH 7.4
Recombinant human CD38, sequence (P28907 whole entry): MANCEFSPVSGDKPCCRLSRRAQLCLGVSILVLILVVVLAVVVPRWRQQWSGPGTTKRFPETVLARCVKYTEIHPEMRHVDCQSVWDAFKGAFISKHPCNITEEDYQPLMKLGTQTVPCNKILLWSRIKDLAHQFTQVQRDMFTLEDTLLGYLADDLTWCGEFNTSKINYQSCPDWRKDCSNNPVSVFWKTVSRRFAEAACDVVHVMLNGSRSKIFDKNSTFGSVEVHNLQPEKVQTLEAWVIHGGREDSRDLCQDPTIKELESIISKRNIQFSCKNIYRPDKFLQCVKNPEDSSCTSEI
Method: as §1, with “inhibit human” for “inhibit mouse”, “Recombinant human” for “Recombinant mouse”, “CD38 (0.8” for “CD38 (0.4”, “of 4” for “of 12”, “at 10” for “at 6”, “min (t=10).” for “min (t=6).”
as §2, with “t=10” for “t=6”, “fluorescence. Fluorescence” for “fluorescence, and fluorescence”

Recombinant mouse CD38, sequence (P56528 whole entry): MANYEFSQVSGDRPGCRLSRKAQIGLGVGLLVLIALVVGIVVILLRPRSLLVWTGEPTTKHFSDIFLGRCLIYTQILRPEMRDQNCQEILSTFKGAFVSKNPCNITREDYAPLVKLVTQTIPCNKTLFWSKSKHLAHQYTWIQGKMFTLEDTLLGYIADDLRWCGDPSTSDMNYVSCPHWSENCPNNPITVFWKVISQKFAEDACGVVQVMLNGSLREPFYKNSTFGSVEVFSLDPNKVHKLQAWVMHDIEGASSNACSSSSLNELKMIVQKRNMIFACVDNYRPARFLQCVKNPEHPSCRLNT

Compound	IC50 (Recombinant mouse CD38)	Mouse brain (% unbound) [1]	IC50 (Recombinant human CD38)
Cc1cc(C(=O)N[C@H]2CC[C@H](NCC(F)F)CC2)nc(-n2ccnc2)n1 [Example 2, N-((1r,4r)-4-((2,2-difluoroethyl)amino)cyclohexyl)-2-(1H-imidazol-1-yl)-6-methyl-pyrimidine-4-carboxamide]	≤ 40 nM	63.4 % unbound	≤ 40 nM
Cc1cc(C(=O)N[C@H]2CC[C@H](N3CCC(F)(F)C3)CC2)nc(-n2ccnc2)n1 [Example 10, N-((1r,4r)-4-(3,3-difluoropyrrolidin-1-yl)cyclohexyl)-2-(1H-imidazol-1-yl)-6-methyl-pyrimidine-4-carboxamide]	≤ 40 nM	9.7 % unbound	≤ 40 nM
Cc1cc(C(=O)N[C@H]2CC[C@H](NC(C)(C)C(F)(F)F)CC2)nc(-n2ccnc2)n1 [Example 21, 2-(1H-imidazol-1-yl)-6-methyl-N-((1r,4r)-4-((1,1,1-trifluoro-2-methylpropan-2-yl)amino)cyclohexyl)pyrimidine-4-carboxamide]	≤ 40 nM	3.6 % unbound	≤ 100 nM

The remaining lines, values ahead:

IC50 (Recombinant mouse CD38)	Mouse brain (% unbound) [1]	IC50 (Recombinant human CD38)	Compound
≤ 40 nM	68.9 % unbound	≤ 40 nM	Cc1cc(C(=O)N[C@H]2CC[C@H](NCC(F)(F)F)CC2)nc(-n2ccnc2)n1 [Example 1, 2-(1H-imidazol-1-yl)-6-methyl-N-((1r,4r)-4-((2,2,2-trifluoroethyl)amino)cyclohexyl)pyrimidine-4-carboxamide]
≤ 40 nM	13.5 % unbound	≤ 40 nM	O=C(N[C@H]1CC[C@H](NCC(F)F)CC1)c1cc(C2CC2)nc(-n2ccnc2)n1 [Example 3, 6-cyclopropyl-N-((1r,4r)-4-((2,2-difluoroethyl)amino)cyclohexyl)-2-(1H-imidazol-1-yl)pyrimidine-4-carboxamide]
